Results taken from the CombiSolv-Exp solvation set (Vermeire and Green 2021).

Test: solvent given as SMILES

CC(C)CC(C)C
Conditions | solvation free energy, 298 K [kcal/mol]
in Brc1ccccc1 | -3.81
in C1CCCCC1 | -4.32
in C1CCOC1 | -4.15
in C1COCCO1 | -3.39
in C=CCCCC | -4.22
in C=CCCCCCC | -4.16
in C=CCCCCCCCC | -4.06
in C=CCCCCCCCCCCCCCC | -3.72
in CC1COC(=O)O1 | -2.21
in CC#N | -2.78
in CC(=O)N(C)C | -2.97
in CC(=O)O | -3.06
in CC(=O)c1ccccc1 | -3.18
in CC(C)=O | -3.45
in CC(C)CC(C)(C)C | -4.15
in CC(C)CCCC(C)CCCC(C)CCCCC(C)CCCC(C)CCCC(C)C | -3.68
in CC(C)CCO | -3.6
in CC(C)O | -3.45
in CC(C)OC(C)C | -4.18
in CCBr | -4.27
in CCC#N | -3.18
in CCC(C)=O | -3.66
in CCCC#N | -3.41
in CCCC(=O)OCC | -3.87
in CCCC(C)=O | -3.74
in CCCCC | -4.33
in CCCCCC | -4.35
in CCCCCC(C)=O | -3.75
in CCCCCCC | -4.22
in CCCCCCCC | -4.14
in CCCCCCCCC | -4.1
in CCCCCCCCCC | -4.06
in CCCCCCCCCCCC | -3.94
in CCCCCCCCCCCCCCCC | -3.85
in CCCCCCCCCCCCO | -3.49
in CCCCCCCCO | -3.57
in CCCCCCOC(C)=O | -3.87
in CCCCO | -3.5
in CCCCOC(C)=O | -3.81
in CCCCOCCCC | -4.13
in CCCO | -3.39
in CCN(CC)CC | -4.26
in CCO | -3.34
in CCOC(C)=O | -3.69
in CCOCC | -4.19
in CCOCCOCCOCC | -3.59
in CCOc1ccccc1 | -3.64
in CN1CCCC1=O | -2.82
in CN(C)C=O | -2.82
in CN(C)P(=O)(N(C)C)N(C)C | -3.23
in CNC=O | -2.49
in CO | -2.99
in COC(C)=O | -3.51
in COCCO | -2.84
in COc1ccccc1 | -3.57
in CS(C)=O | -2.03
in Cc1ccc(C)cc1 | -4.07
in Cc1ccccc1 | -4.07
in Cc1ccccn1 | -3.66
in ClC(Cl)(Cl)Cl | -4.29
in ClC(Cl)Cl | -4.17
in ClCCCl | -3.63
in ClCCl | -3.96
in Clc1ccccc1 | -4.04
in FC(F)(F)C(F)(F)C(F)(F)C(F)(F)C(F)(F)C(F)(F)C(F)(F)C(F)(F)F | -2.77
in FC(F)(F)C(F)(F)C(F)(F)C(F)(F)C(F)(F)C(F)(F)F | -2.85
in Fc1ccccc1 | -4.04
in ICI | -2.14
in N#Cc1ccccc1 | -3.27
in Nc1ccccc1 | -2.55
in O | 2.86
in O=C1CCCCC1 | -3.56
in O=C1CCCO1 | -2.36
in OCc1ccccc1 | -2.76
in S=C=S | -4.19
in c1ccccc1 | -4.03
in c1ccncc1 | -3.4

COC
Conditions | solvation free energy, 298 K [kcal/mol]
in Brc1ccccc1 | -2.1
in CC(C)(C)O | -2.25
in CC(C)CCO | -1.99
in CC(C)CO | -2.1
in CC(C)O | -2.13
in CCC(C)(C)O | -2.22
in CCC(C)CO | -2.05
in CCC(C)O | -2.1
in CCC(O)CC | -2.18
in CCCC(C)O | -2.05
in CCCCCC | -1.79
in CCCCCCCCO | -1.87
in CCCCCO | -1.98
in CCCCO | -2.05
in CCCO | -2.1
in CN(C)C=O | -2.13
in CO | -2.31
in COC(C)=O | -2.33
in Cc1ccc(C)cc1 | -2.03
in Cc1cccc(C)c1 | -2.05
in Cc1ccccc1C | -2.04
in Clc1ccccc1 | -2.18
in Ic1ccccc1 | -2.03
in O | -1.91

OCC1OC(O)C(O)C(O)C1O (centres undefined)
Conditions | solvation free energy, 298 K [kcal/mol]
in O | -25.5

CCN(CC)c1c([N+](=O)[O-])cc(C(F)(F)F)c(N)c1[N+](=O)[O-]
Conditions | solvation free energy, 298 K [kcal/mol]
in O | -5.66

CCCCOCC(C)O (centres undefined)
Conditions | solvation free energy, 298 K [kcal/mol]
in O | -5.73

c1ccc2c(c1)ccc1c3ccccc3ccc21
Conditions | solvation free energy, 298 K [kcal/mol]
in CCCCCCCCC=CCCCCCCCC(=O)OCC(COC(=O)CCCCCCCC=CCCCCCCCC)OC(=O)CCCCCCCC=CCCCCCCCC | -13.9
in O | -6.53

c1ccc2c(c1)-c1cccc3cccc-2c13
Conditions | solvation free energy, 298 K [kcal/mol]
in C1COCCO1 | -13
in CC(=O)N(C)C | -13.2
in CC(C)CC(C)(C)C | -11.2
in CC(C)CC(C)O | -11.2
in CC(C)CCO | -11.2
in CC(C)CO | -11.1
in CC(C)O | -11.1
in CCC(C)(C)O | -11.3
in CCC(C)O | -11.2
in CCCC(C)CO | -11.4
in CCCC(C)O | -11.4
in CCCCC(CC)CO | -11.5
in CCCCCC | -11.5
in CCCCCCC | -11.6
in CCCCCCCC | -11.6
in CCCCCCCCC=CCCCCCCCC(=O)OCC(COC(=O)CCCCCCCC=CCCCCCCCC)OC(=O)CCCCCCCC=CCCCCCCCC | -12.2
in CCCCCCCCCC | -11.7
in CCCCCCCCO | -11.8
in CCCCCCCO | -11.9
in CCCCCCO | -11.7
in CCCCCO | -11.6
in CCCCCl | -12.8
in CCCCO | -11.5
in CCCCOC(C)=O | -12.7
in CCCCOCCCC | -12.1
in CCCO | -11.3
in CCO | -11.4
in CCOC(C)=O | -12.7
in CCOCC | -12.4
in CN(C)C=O | -13.2
in CO | -11.2
in COC(C)(C)C | -12.2
in ClC(Cl)(Cl)Cl | -12.7
in ClC(Cl)Cl | -13
in ClCCCl | -13
in O | -4.69

ClCc1ccccc1
Conditions | solvation free energy, 298 K [kcal/mol]
in C1COCCO1 | -7.23
in CC(C)(C)O | -6.07
in CC(C)O | -5.99
in CCCCO | -6.08
in CCCO | -6.06
in CCO | -6.22
in CO | -6.37
in O | -1.88

CCCC(=O)OCC
Conditions | solvation free energy, 298 K [kcal/mol]
in CCCCCCCC | -4.69
in CCCCCCCCCCCCCCCC | -4.54
in CCCCCCCCO | -4.86
in CN1CCCC1=O | -4.9
in O | -2.52
in O=CN1CCOCC1 | -4.61
in [2H]O[2H] | -2.59

CCOc1ccccc1
Conditions | solvation free energy, 298 K [kcal/mol]
in CCCCCC | -6.02
in O | -2.22

COC(=O)c1ccccc1
Conditions | solvation free energy, 298 K [kcal/mol]
in CC(C)CC(C)(C)C | -6.71
in O | -3.91

CC(=O)Cc1ccccc1
Conditions | solvation free energy, 298 K [kcal/mol]
in O | -5.62

CCCCCCc1cccc2ccccc12
Conditions | solvation free energy, 298 K [kcal/mol]
in OCCOCCO | -8.95

CC(C)=CCCC1(C)C2CC3C(C2)C31C (centres undefined)
Conditions | solvation free energy, 298 K [kcal/mol]
in O | 0.55

COC(=O)CCl
Conditions | solvation free energy, 298 K [kcal/mol]
in O | -4

CC(C)CCCCCCOC(=O)c1ccccc1C(=O)OCCCCCCC(C)C
Conditions | solvation free energy, 298 K [kcal/mol]
in O | -6.14

FCCl
Conditions | solvation free energy, 298 K [kcal/mol]
in O | -0.77

Nc1ccc([N+](=O)[O-])cc1Cl
Conditions | solvation free energy, 298 K [kcal/mol]
in O | -8.74

CCSc1nc(NC(C)C)nc(NC(C)C)n1
Conditions | solvation free energy, 298 K [kcal/mol]
in O | -9

CC1=CCC(C(C)C)c2cc(C)ccc21 (centres undefined)
Conditions | solvation free energy, 298 K [kcal/mol]
in O | -1.12

C=C(C)C1CC=C(C=O)CC1 (centres undefined)
Conditions | solvation free energy, 298 K [kcal/mol]
in O | -4.09

Nc1ccccc1-c1ccccc1
Conditions | solvation free energy, 298 K [kcal/mol]
in O | -7.27

CC1CCC(C(C)C)C(O)C1 (centres undefined)
Conditions | solvation free energy, 298 K [kcal/mol]
in O | -3.2

CC(C)(C)c1ccccc1
Conditions | solvation free energy, 298 K [kcal/mol]
in C1CCOC1 | -6.93
in CC#N | -5.86
in CC(C)O | -5.63
in CO | -5.52
in O | -0.42

C=C(C)C1CCC2(CO)CCC3(C)C(CCC4C5(C)CCC(O)C(C)(C)C5CCC43C)C12 (centres undefined)
Conditions | solvation free energy, 298 K [kcal/mol]
in CC(C)=O | -27.9
in CCCCCCO | -27.3
in CCCCCO | -27.6
in CCCCO | -28
in CCCO | -27.8
in CCO | -27.7
in CCOC(C)=O | -27.8
in CO | -27.3
in COC(C)=O | -27.4
in ClC(Cl)Cl | -28.4
in ClCCl | -27.7
in O | -14.2

Clc1cc(Cl)c(-c2cc(Cl)ccc2Cl)c(Cl)c1
Conditions | solvation free energy, 298 K [kcal/mol]
in O | -2.25

CCCCCCCCCCCCc1ccccc1
Conditions | solvation free energy, 298 K [kcal/mol]
in CCC(C)=O | -11.5
in CCCCCCC | -11.8
in CCO | -10
in O=Cc1ccco1 | -10.4
in OCCOCCO | -7.69

CCC(O)C(C)C (centres undefined)
Conditions | solvation free energy, 298 K [kcal/mol]
in CC(C)CC(C)(C)C | -4.53
in CCCCCCCC | -4.72
in CCCCCCCCCC | -4.67
in O | -3.88

COc1cc(C(C)=O)cc(-c2cc(C(C)=O)cc(OC)c2O)c1O
Conditions | solvation free energy, 298 K [kcal/mol]
in CCC(C)=O | -21.7
in CCCO | -21.1
in Cc1ccccc1 | -20.8
in ClC=CCl | -22
in O | -19.2

CC(C)(C)Cl
Conditions | solvation free energy, 298 K [kcal/mol]
in Brc1cccc2ccccc12 | -3.15
in Brc1ccccc1 | -3.44
in C1CCCCC1 | -3.64
in C1CCOCC1 | -3.82
in C1COCCO1 | -3.36
in C=CCCCCCCCCCCCCCC | -3.07
in CC(=O)N(C)C | -3.1
in CC(=O)OCc1ccccc1 | -3.28
in CC(C)(C)O | -2.95
in CC(C)=O | -3.46
in CC(C)CC(C)(C)C | -3.29
in CC(C)OC(C)C | -3.53
in CC(O)C(C)O | -2.37
in CC(O)CCO | -2.14
in CC(O)CO | -2.29
in CCC(C)=O | -3.66
in CCC(O)CO | -2.76
in CCCCCC | -3.43
in CCCCCCC | -3.47
in CCCCCCCC | -3.35
in CCCCCCO | -3.14
in CCCCCO | -3.23
in CCCCO | -3.08
in CCO | -3.22
in CCOC(C)=O | -3.66
in CCOCC | -3.38
in CN1CCCC1=O | -2.97
in CN(C)C=O | -3.15
in CNC=O | -3.02
in CO | -3.11
in COC(C)(C)C | -3.7
in COCCO | -3.3
in Cc1ccc(C)cc1 | -3.58
in ClC(Cl)(Cl)Cl | -3.66
in ClCCCl | -3.69
in Clc1ccccc1 | -3.56
in N#Cc1ccccc1 | -3.15
in O | 1.09
in O=C1CCCCC1 | -3.64
in OCCO | -1.8
in OCCOCCO | -2.39
in OCCOCCOCCO | -2.49
in c1ccc2ncccc2c1 | -3.18
in c1ccccc1 | -3.93
